Assay results taken from patent US8785483B2, “Methods for treating COPD” (The Board of Regents of the University of Texas System, priority 2010, dated 2014).

Legend:
[1] = test system: Muc5B; experiment: Western blot of Muc5B in IL-13-treated SAEC monolayer; format: cell-based, human; conditions: IL-13 48 h, immunoblotting
Protocol: FIGS. 6A-6B. AR inhibition prevents IL-13-induced expression of Mucin and transcription factor SPDEF in airway epithelial cell monolayer. (A) The airway epithelial cell monolayer at ALI was serum starved without or with fidarestat and incubated with IL-13 for 18 h. Total RNA was isolated and subsequently RT-PCR was performed to assess the expression of Muc5AC and SPDEF. The bar diagrams show densitometric analysis of the corresponding blots (n=4). *p<0.001 vs Control; **p<0.001 vs IL-13; (B) The monolayer of ciliated airway cells at ALI was treated with AR inhibitor for 24 h and subsequently incubated with IL-13 for 24 or 48 h. At the end of incubation, cell lysate was prepared and subjected to western blotting using antibodies against Muc5AC, Muc5B, and SPDEF. The membranes were stripped and re-probed with antibodies against GAPDH to show the equal loading of protein. A representative blot is shown (n=4). *p<0.0001 vs Control; **p<0.001 vs IL-13. […] Protein levels were determined using Bradford reagent (Biorad, Hercules, Calif.). […] The blots were then washed, exposed to HRP-conjugated secondary antibodies (1:5,000 dilution) for 1 h, and the antigen-antibody complex was detected by enhanced chemiluminescence (Amersham Pharmacia Biotech, Piscataway, N.J., USA). […]

[2] = test system: ERK1/2; experiment: Western blot of ERK1/2 phosphorylation in airway epithelial monolayer; format: cell-based, human; conditions: ALI monolayer, AR inhibitor 24 h prior to IL-13
Protocol: FIG. 7. AR inhibition prevents IL-13-induced phosphorylation of JAK-1, ERK1/2 and STAT-6 in airway epithelial monolayer. The ciliated monolayer of airway cells at ALI was treated with AR inhibitor for 24 h and stimulated with IL-13 for different time periods as indicated. At the end of incubation, cells were lysed and cell lysate was subjected to western blotting using antibodies against phosphorylated and nonphosphorylated JAK-1, ERK1/2 and STAT-6 to analyze the activation of these signaling proteins. A representative blot is shown (n=4). #p<0.001 vs Control; *p<0.01 and **p<0.001 vs IL-13. For air-liquid interface (ALI) culture, SAEC were seeded at 8.5×10^4 cells/12-mm-diameter PET transparent insert with […] pores (12-well millicell culture insert; Millipore) and pre-coated with rat tail collagen type-1 (Sigma-Aldrich). The cells were grown submerged in the differentiation medium as described earlier by Zhen et al. (Am J Respir Cell Mol Biol 36: 244-253, 2007). […] Protein levels were determined using Bradford reagent (Biorad, Hercules, Calif.). […] The blots were then washed, exposed to HRP-conjugated secondary antibodies (1:5,000 dilution) for 1 h, and the antigen-antibody complex was detected by enhanced chemiluminescence (Amersham Pharmacia Biotech, Piscataway, N.J., USA). […]

With `NC(=O)[C@@H]1C[C@]2(NC(=O)NC2=O)c2cc(F)ccc2O1` [fidarestat, (2S,4S)-2-aminoformyl-6-fluoro-spiro[chroman-4,4′-imidazolidine]-2′,5′-dione] the “prevention of IL-13-induced increase in Muc5B protein” value [1] was ~50% and the “IL-13-induced phosphorylation of ERK1/2” value [2] was “decreased significantly”.
